Measurements: PubChem BioAssay (NCI)
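Values below derive from 48-hour exposures of cells grown in 96-well plates, with endpoints linearly interpolated between the two concentrations bracketing the appropriate inhibition level. GI50 is the concentration that inhibits growth by half. TGI: total growth inhibition.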

Tests used:
Assay in all cases: growth of human tumour cells (NCI), 48 h
[1] = tested on: 786-0 renal
[2] = tested on: A498 renal
[3] = tested on: A549 NSCLC
[4] = tested on: ACHN renal
[5] = tested on: BT-549 breast
[6] = tested on: CAKI-1 renal
[7] = tested on: CCRF-CEM leukemia
[8] = tested on: COLO 205 colon
[9] = tested on: DU-145 prostate
[10] = tested on: EKVX NSCLC
[11] = tested on: HCC-2998 colon
[12] = tested on: HCT-116 colon
[13] = tested on: HCT-15 colon
[14] = tested on: HL-60(TB) leukemia
[15] = tested on: HOP-62 NSCLC
[16] = tested on: HOP-92 NSCLC
[17] = tested on: HS 578T breast
[18] = tested on: HT29 colon
[19] = tested on: IGROV1 ovarian
[20] = tested on: K-562 leukemia
[21] = tested on: KM12 colon
[22] = tested on: LOX IMVI melanoma
[23] = tested on: M14 melanoma
[24] = tested on: MALME-3M melanoma
[25] = tested on: MCF7 breast
[26] = tested on: MDA-MB-231 breast
[27] = tested on: MOLT-4 leukemia
[28] = tested on: NCI-H226 lung
[29] = tested on: NCI-H23 lung
[30] = tested on: NCI-H460 lung
[31] = tested on: NCI-H522 lung
[32] = tested on: NCI/ADR-RES ovarian
[33] = tested on: OVCAR-3 ovarian
[34] = tested on: OVCAR-4 ovarian
[35] = tested on: OVCAR-5 ovarian
[36] = tested on: OVCAR-8 ovarian
[37] = tested on: PC-3 prostate
[38] = tested on: RPMI-8226 leukemia
[39] = tested on: RXF 393 renal
[40] = tested on: SF-268 CNS
[41] = tested on: SF-295 CNS
[42] = tested on: SF-539 CNS
[43] = tested on: SK-MEL-2 melanoma
[44] = tested on: SK-MEL-5 melanoma
[45] = tested on: SK-OV-3 ovarian
[46] = tested on: SN12C renal
[47] = tested on: SNB-19 CNS
[48] = tested on: SNB-75 CNS
[49] = tested on: SR leukemia
[50] = tested on: SW-620 colon
[51] = tested on: T-47D breast
[52] = tested on: TK-10 renal
[53] = tested on: U251 CNS
[54] = tested on: UACC-257 melanoma
[55] = tested on: UACC-62 melanoma
[56] = tested on: UO-31 renal

With `CCO/C=N/C1=C(C#N)C(c2ccc(OC)cc2)c2sc3c(F)cccc3c2O1` (configuration not stated) the GI50 [1] was 4.85 µM, the TGI [1] was 68.9 µM and the GI50 [2] was 2.18 µM. For the same molecule, the TGI [2] was 7.8 µM, the GI50 [3] was 2.22 µM and the TGI [3] was greater than 100 µM. For the same molecule, the GI50 [4] was 5.57 µM, the TGI [4] was greater than 100 µM and the GI50 [5] was 7.17 µM. For the same molecule, the TGI [5] was greater than 100 µM, the GI50 [6] was 3.3 µM and the TGI [6] was greater than 100 µM. The GI50 [7] was 2.69 µM, the TGI [7] was 28.7 µM and the GI50 [8] was 3.33 µM. It also gave a TGI [8] of 15 µM, a GI50 [9] of 3.57 µM and a TGI [9] of 57.2 µM. The GI50 [10] was 7.12 µM, the TGI [10] was greater than 100 µM and the GI50 [11] was 5.12 µM. The TGI [11] was 32.6 µM, the GI50 [12] was 2.02 µM and the TGI [12] was greater than 100 µM. It also gave a GI50 [13] of 1.67 µM, a TGI [13] of 26.7 µM and a GI50 [14] of 2 µM. For the same molecule, the TGI [14] was 5.5 µM, the GI50 [15] was 2.9 µM and the TGI [15] was 47.5 µM. It also gave a GI50 [16] of 3.21 µM, a TGI [16] of 43.6 µM and a GI50 [17] of 2.11 µM. It also gave a TGI [17] of 7.93 µM, a GI50 [18] of 3.23 µM and a TGI [18] of 16.6 µM. It also gave a GI50 [19] of 2.73 µM, a TGI [19] greater than 100 µM and a GI50 [20] of 0.537 µM. The TGI [20] was greater than 100 µM, the GI50 [21] was 2.52 µM and the TGI [21] was 72 µM. It also gave a GI50 [22] of 3.08 µM, a TGI [22] of 12.4 µM and a GI50 [23] of 1.7 µM. For the same molecule, the TGI [23] was greater than 100 µM, the GI50 [24] was 11.3 µM and the TGI [24] was greater than 100 µM. The GI50 [25] was 1.44 µM, the TGI [25] was 50.9 µM and the GI50 [26] was 3.87 µM. The TGI [26] was 30.7 µM, the GI50 [27] was 2.8 µM and the TGI [27] was 13.5 µM. For the same molecule, the GI50 [28] was 2.89 µM, the TGI [28] was 42.1 µM and the GI50 [29] was 3.29 µM. The TGI [29] was greater than 100 µM, the GI50 [30] was 2.82 µM and the TGI [30] was 13.5 µM. It also gave a GI50 [31] of 0.569 µM, a TGI [31] of 3.84 µM and a GI50 [32] of 1.25 µM. It also gave a TGI [32] of 5.03 µM, a GI50 [33] of 2.2 µM and a TGI [33] of 9.7 µM. It also gave a GI50 [34] of 5.59 µM, a TGI [34] greater than 100 µM and a GI50 [35] of 6.8 µM. It also gave a TGI [35] of 76.3 µM, a GI50 [36] of 4.06 µM and a TGI [36] greater than 100 µM. For the same molecule, the GI50 [37] was 2.86 µM, the TGI [37] was greater than 100 µM and the GI50 [38] was 3.26 µM. It also gave a TGI [38] of 16.3 µM, a GI50 [39] of 2 µM and a TGI [39] of 16.5 µM. It also gave a GI50 [40] of 4.31 µM, a TGI [40] greater than 100 µM and a GI50 [41] of 4.44 µM. It also gave a TGI [41] of 62.3 µM, a GI50 [42] of 2.18 µM and a TGI [42] of 6.28 µM. The GI50 [43] was 3.8 µM, the TGI [43] was 78.3 µM and the GI50 [44] was 3.24 µM. For the same molecule, the TGI [44] was 15.7 µM, the GI50 [45] was 4.67 µM and the TGI [45] was greater than 100 µM. For the same molecule, the GI50 [46] was 3.75 µM, the TGI [46] was 55 µM and the GI50 [47] was 4.02 µM. The TGI [47] was greater than 100 µM, the GI50 [48] was 1.66 µM and the TGI [48] was 5.67 µM. The GI50 [49] was 1.04 µM, the TGI [49] was 17.5 µM and the GI50 [50] was 2.2 µM. It also gave a TGI [50] greater than 100 µM, a GI50 [51] of 3.51 µM and a TGI [51] greater than 100 µM. For the same molecule, the GI50 [52] was 6.74 µM, the TGI [52] was greater than 100 µM and the GI50 [53] was 3.48 µM. The TGI [53] was 19.7 µM, the GI50 [54] was 14.8 µM and the TGI [54] was greater than 100 µM. It also gave a GI50 [55] of 1.84 µM, a TGI [55] greater than 100 µM and a GI50 [56] of 4.03 µM. The TGI [56] was greater than 100 µM.
